The record followed here is US11180479B2 (HAPLOGEN GmbH, priority 2017, dated 2021).

For orientation: EC50 means the concentration needed to bring the measured effect to its halfway point. Usually IC50 stands for the concentration needed to halve the response being measured.

Experiment [1] has as its system picornaviruses (CVB1, HRV-A2, HRV-A23, EV-68). Kind of experiment: Anti-picornavirus cytopathic effect (CPE) reduction assay on HeLa H1 cells. The settings on record: 48 h, category from averaging EC50 values of four picornaviruses (CVB1, HRV-A2, HRV-A23, EV68), second symbol in parentheses. It counts as cell-based. How it is done:
Anti-Picornavirus Assay in Mammalian Cell Culture
The antiviral activity of selected compounds was tested using a cytopathic effect (CPE) reduction assay on HeLa H1 cells (ATCC CRL-1958). Briefly, cells were seeded in 96-well dishes (2×10^4 cells/well) in DMEM medium (Life technologies) supplemented with 10% FBS and PenStrep solution (100 U/mL Penicillin and 100 μg/mL streptomycin) and incubated at 37° C., 5% CO2 overnight. The next day, cells were pre-treated with serial dilutions of the compound in DMEM medium supplemented with 2% FBS and PenStrep for 2 h at 37° C., 5% CO2. Next, cells were infected with virus (CVB1, HRV-A2, HRV-A23, EV-68) at an multiplicity of infection (MOI) which results in a complete virus-induced CPE within 2 days in control wells (infected and vehicle-treated). After 48 h, supernatants were aspirated and 50 μl/well of CellTiterBlue reagent (Promega) diluted 1:5 in DMEM+2% FBS, was added to the cells. Plates were returned to the incubator and allowed to develop for 1.5 h. After that, plates were equilibrated to RT and subsequently, fluorescence was recorded (Excitation wavelength: 560 nm; emission wavelength: 590 nm) using a SpectraMax M5 multimode plate reader. Viability of cells was calculated according to the formula: V=(RFUCpd−RFUVeh/(RFUM−RFUVeh), where RFUCpd refers to infected and compound-treated cells, RFUVeh to infected and vehicle-treated cells and RFUM to uninfected and vehicle treated cells. Half-maximal effective concentrations (EC50) were calculated by non-linear regression analysis using the drc package in R (R Development. Core Team, 2005). EC50 categories as presented in Table 2 were calculated by averaging the EC50 values from four picornaviruses (CVB1, HRV-A2, HRV-A23, EV68).
A general note: Damage to the host cells serves as the signal in cytopathic effect assays.

The target of another experiment is T1, PLA2G16 (Homo sapiens, UniProt P53816).
T1 construct: Hexa-His (N); made in house; host or cells: E. coli BL21(DE3)
T1 sequence (P53816 1-162): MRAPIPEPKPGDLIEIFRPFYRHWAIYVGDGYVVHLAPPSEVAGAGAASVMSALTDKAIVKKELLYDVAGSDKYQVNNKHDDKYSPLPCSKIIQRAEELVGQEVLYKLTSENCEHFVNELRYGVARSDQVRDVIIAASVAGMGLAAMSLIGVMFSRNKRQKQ
As to the kind of experiment: Enzyme activity assay for PLA2G16 (Red/Green BODIPY PC-A2 fluorescence). It counts as biochemical. The settings on record: His-tagged PLA2G16, 4 min pre-incubation, compound 2 nM to 50 μM; first symbol in parentheses. An excerpt:
Purification and Enzyme Activity Assay for PLA2G16
A cDNA for PLA2G16 (NM_007069) was custom-synthesized by Genscript (Piscataway, USA) and inserted into a pET-based bacterial expression vector [Moffatt, B. A. and Studier, F. W. (1986) J. Mol. Biol. 189, 113-130; Rosenberg, A. H., Lade, B. N., Chui, D., Lin, S., Dunn, J. J., and Studier, F. W. (1987) Gene 56, 125-135], enabling the expression of N-terminally Hexa-His-tagged PLA2G16. E. coli BL21(DE3) (Agilent) were transformed with pET-His-PLA2G16 according to the manufacturer's instructions and plated on Carbenicillin-containing agar plates (final concentration: 100 μg/mL). A single clone was inoculated in 100 mL LB medium supplemented with 100 μg/mL Carbenicillin and the inoculated culture was grown at 37° C. overnight in a rotary shaker. On the next day, the bacterial culture was diluted in LB medium supplemented with 100 μg/mL Carbenicillin (30 mL overnight culture in 800 mL total culture volume). Bacteria were grown at 37° C. until the OD600 reached 0.6. Gene expression was induced by addition of 1 mM isopropyl-β-D-thiogalactopyranosid (IPTG) for 2 h at 18° C. Subsequently, bacteria were harvested by centrifugation (15 min; 10,000×g; 4° C.) and frozen at −80° C. The bacterial pellet was resuspended in Buffer A (50 mM Tris/HCl pH 7.5, 500 mM NaCl, 5% glycerol, 5 mM β-Mercaptoethanol and 1 mM PMSF) and lysed by addition of 1 mg/mL lysozyme (Sigma Aldrich) and 100 μg/mL DNasel-(Roche). The sample was incubated at 30° C. for 30 min to allow lysis to occur. Then, the lysate was cleared by centrifugation (15,000×g, 15 min, 4° C.) and incubated with 1.5 mL Ni-NTA agarose suspension (Qiagen) for 60 min at 4° C. The Ni-NTA agarose was washed with 10 mL Buffer A. Bound protein was eluted by applying a manual gradient of Buffer A supplemented with increasing concentrations of imidazole (Sigma Aldrich; 25/50/75/100/250 mM). Purified fractions were analyzed by SDS-PAGE followed by Coomassie staining to assess the purity.
Activity of the protein was assessed as follows:
Red/Green BODIPY® PC-A2 (Invitrogen, 1 mM in DMSO) was mixed with equal volumes of 1,2-Dioleoyl-sn-glycero-3-phosphocholine (DOPC; Sigma Aldrich, 10 mM in Ethanol) and 1,2-Dioleoyl-sn-glycero-3-phospho-rac-(1-glycerol) (DOPG; Sigma Aldrich, 10 mM in Ethanol) and 0.5 volumes of Cholesterol (CHOL; Sigma Aldrich, 10 mM in Ethanol) and vortexed for 5 s. The mixture (Red/Green BODIPY® PC-A2/DOPC/DOPG/CHOL) was diluted 1:91.4 in activity assay buffer (50 mM Tris/HCl pH 8.5, 100 mM NaCl) using a small-orifice pipette tip under constant vortexing. In the following, this preparation will be referred to as the “substrate solution”.
In order to evaluate their inhibitory potential, compounds were dissolved at 10 mM concentration in DMSO and directly spotted into assay plates (Corning, Cat. No. 3576) using acoustic liquid transfer (Labcyte Echo 525). Each compound was spotted at increasing concentrations, ranging from 2 nM to 50 μM (concentration in the final assay volume). 50 μl of PLA2G16 enzyme solution (diluted in activity buffer, supplemented with 5 mM L-Glutathione; Sigma Aldrich) was pre-incubated with compounds for 4 min., followed by addition of 50 μl of substrate solution. Fluorescence was recorded immediately after substrate addition for a total time of 10 min. using a SpectraMax M5 multimode reader (Excitation wavelength: 480 nm, emission wavelength: 530 nm). The relative increase of fluorescence over time is referred to as the enzyme activity. Half-maximal inhibitory concentrations (IC50) were derived by non-linear regression analysis using the drc package in R (R Development. Core Team, 2005).

Regarding `CC(C)NC(=O)C(=O)[C@H]1CNC(=O)[C@@H]1c1ccc(F)cc1` (racemic) [FP-27, Rac-2-[(3R,4S)-4-(4-fluorophenyl)-5-oxopyrrolidin-3-yl]-2-oxo-N-(propan-2-yl)acetamide], the EC50 in experiment [1] was in the range of 1000 to 10000 nM. Besides, the IC50 on PLA2G16 is less than 1000 nM.
In the same order, the values of `CC1(NC(=O)C(=O)[C@H]2CNC(=O)[C@@H]2c2ccccc2)CC1` (racemic) [FP-20, Rac-N-(1-methylcyclopropyl)-2-oxo-2-[(3R,4S)-5-oxo-4-phenylpyrrolidin-3-yl]acetamide] are 1000 to 10000 nM and less than 1000 nM.
Turning to `O=C(NC1CC1)C(=O)[C@H]1CN(c2cncnc2)C(=O)[C@@H]1Cc1ccccc1` (racemic) [FP-54, Rac-2-[(3R,4R)-4-benzyl-5-oxo-1-(pyrimidin-5-yl)pyrrolidin-3-yl]-N-cyclopropyl-2-oxoacetamide], the EC50 in experiment [1] is less than 1000 nM. Also, the IC50 at PLA2G16 is less than 1000 nM.
Turning to `O=C(NC1CC1)C(=O)[C@H]1CN(Cc2ccccc2)C(=O)[C@@H]1c1ccccc1` (racemic) [FP-99, Rac-2-[(3R,4S)-1-benzyl-5-oxo-4-phenylpyrrolidin-3-yl]-N-cyclopropyl-2-oxoacetamide], the EC50 in experiment [1] fell in the range of 1000 to 10000 nM. In addition, the IC50 on PLA2G16 is less than 1000 nM.
For `CC(F)(F)CNC(=O)C(=O)[C@H]1CN(c2cncnc2)C(=O)[C@@H]1Cc1ccccc1` (racemic) [FP-56, Rac-2-[(3R,4R)-4-benzyl-5-oxo-1-(pyrimidin-5-yl)pyrrolidin-3-yl]-N-(2,2-difluoropropyl)-2-oxoacetamide], in experiment [1], the EC50 was less than 1000 nM. Besides, the IC50 at PLA2G16 was less than 1000 nM.
Take `CC(F)(F)CNC(=O)C(=O)[C@H]1CN(c2cncnc2C#N)C(=O)[C@@H]1Cc1ccccc1` (racemic) [FP-66, Rac-2-[(3R,4R)-4-benzyl-1-(4-cyanopyrimidin-5-yl)-5-oxopyrrolidin-3-yl]-N-(2,2-difluoropropyl)-2-oxoacetamide]: the EC50 in experiment [1] was 1000 to 10000 nM. The IC50 at PLA2G16 was less than 1000 nM.
For the molecule `O=C(NC1CC1)C(=O)[C@H]1CNC(=O)[C@@H]1Cc1ccccc1` (racemic) [FP-2, Rac-2-[(3R,4R)-4-benzyl-5-oxopyrrolidin-3-yl]-N-cyclopropyl-2-oxoacetamide], the EC50 in experiment [1] is less than 1000 nM. Moreover, the concentration for half-maximal inhibition (IC50) at PLA2G16 is less than 1000 nM.
Turning to `Cn1ncnc1CN1C[C@H](C(=O)C(=O)NCC(C)(F)F)[C@@H](Cc2ccc(F)cc2)C1=O` (racemic) [FP-53, Rac-N-(2,2-difluoropropyl)-2-[(3R,4R)-4-[(4-fluorophenyl)methyl]-1-[(1-methyl-1H-1,2,4-triazol-5-yl)methyl]-5-oxopyrrolidin-3-yl]-2-oxoacetamide], the EC50 in experiment [1] lay within 1000 to 10000 nM. The IC50 on PLA2G16 is less than 1000 nM.
For the molecule `CNC(=O)CN1C[C@H](C(=O)C(=O)NCC(C)C)[C@@H](Cc2ccccc2)C1=O` (racemic) [FP-43, Rac-2-[(3R,4R)-4-benzyl-1-[(methylcarbamoyl)methyl]-5-oxopyrrolidin-3-yl]-N-(2-methylpropyl)-2-oxoacetamide], the EC50 in experiment [1] lay in the range of 1000 to 10000 nM. Further, the half-maximal inhibitory concentration (IC50) on PLA2G16 is less than 1000 nM.
On to `O=C(NC1CC1)C(=O)[C@H]1CN(c2cncnc2)C(=O)[C@@H]1Cc1ccccc1` (single isomer, unassigned) [FP-89], for which the EC50 in experiment [1] is less than 1000 nM. For the same molecule, the IC50 on PLA2G16 is less than 1000 nM.
Turning to `Cn1ncnc1CN1C[C@H](C(=O)C(=O)NC2CC2)[C@@H](Cc2ccc(F)cc2)C1=O` (racemic) [FP-52, Rac-N-cyclopropyl-2-[(3R,4R)-4-[(4-fluorophenyl)methyl]-1-[(1-methyl-1H-1,2,4-triazol-5-yl)methyl]-5-oxopyrrolidin-3-yl]-2-oxoacetamide], the EC50 in experiment [1] was more than 10000 nM. On PLA2G16, the IC50 is less than 1000 nM.
Turning to `CCCCNC(=O)C(=O)[C@H]1CNC(=O)[C@@H]1c1ccccc1` (racemic) [FP-103, Rac-N-butyl-2-oxo-2-[(3R,4S)-5-oxo-4-phenylpyrrolidin-3-yl]acetamide], the EC50 in experiment [1] is less than 1000 nM. The IC50 on PLA2G16 was less than 1000 nM.
For the molecule `O=C(NC1CC1)C(=O)[C@H]1CN(CC(F)F)C(=O)[C@@H]1Cc1ccccc1` (racemic) [FP-49, Rac-2-[(3R,4R)-4-benzyl-1-(2,2-difluoroethyl)-5-oxopyrrolidin-3-yl]-N-cyclopropyl-2-oxoacetamide], in experiment [1], the EC50 is less than 1000 nM. In addition, the concentration for half-maximal inhibition (IC50) on PLA2G16 was less than 1000 nM.
Take `Cn1ncnc1CN1C[C@H](C(=O)C(=O)NC2CC2)[C@@H](Cc2ccccc2)C1=O` (racemic) [FP-42, Rac-2-[(3R,4R)-4-benzyl-1-[(1-methyl-1H-1,2,4-triazol-5-yl)methyl]-5-oxopyrrolidin-3-yl]-N-cyclopropyl-2-oxoacetamide]: the EC50 in experiment [1] lay within 1000 to 10000 nM. Besides, the IC50 on PLA2G16 was less than 1000 nM.
Regarding `O=C(NC1CC(F)(F)C1)C(=O)[C@H]1CNC(=O)[C@@H]1c1ccccc1` (racemic) [FP-16, Rac-N-(3,3-difluorocyclobutyl)-2-oxo-2-[(3R,4S)-5-oxo-4-phenylpyrrolidin-3-yl]acetamide], the EC50 in experiment [1] lay within 1000 to 10000 nM. Besides, the IC50 at PLA2G16 was less than 1000 nM.
As for `O=C(NCC(F)F)C(=O)[C@H]1CNC(=O)[C@@H]1Cc1ccccc1` (racemic) [FP-4, Rac-2-[(3R,4R)-4-benzyl-5-oxopyrrolidin-3-yl]-N-(2,2-difluoroethyl)-2-oxoacetamide], the EC50 in experiment [1] is less than 1000 nM. Also, the IC50 at PLA2G16 was less than 1000 nM.
Turning to `O=C(NCC1CC1)C(=O)[C@H]1CNC(=O)[C@@H]1c1ccccc1` (racemic) [FP-10, Rac-N-(cyclopropylmethyl)-2-oxo-2-[(3R,4S)-5-oxo-4-phenylpyrrolidin-3-yl]acetamide], the EC50 in experiment [1] was less than 1000 nM. On PLA2G16, the IC50 is less than 1000 nM.
In the case of `NC(=O)c1ccc(CN2C[C@H](C(=O)C(=O)NC3CC3)[C@@H](Cc3ccccc3)C2=O)cc1` (racemic), the IC50 at PLA2G16 is less than 1000 nM.
